Measurements from patent publication US12522583B2, “Benzimidazole derivatives and aza-benzimidazole derivatives as Janus kinase 2 inhibitors and uses thereof” (Dana-Farber Cancer Institute, Inc., priority 2018, dated 2026).

Columns and labels:
Assay in all cases: KINOMEscan
Assay type in all cases: binding
[1] = molecular target: EPHA2 (Homo sapiens (Human), UniProt P29317); conditions: read-out: percent control
Source text: (§1) Example 2. In Vitro Kinase Selectivity Profiling of the Compounds of the Present Disclosure

[2] = molecular target: FYN (Homo sapiens (Human), UniProt P06241); conditions: read-out: percent control
Source text: as §1

[3] = molecular target: SRMS (Homo sapiens (Human), UniProt Q9H3Y6); conditions: read-out: percent control
Source text: as §1

[4] = molecular target: MST1R (Homo sapiens (Human), UniProt Q04912); conditions: read-out: percent control
Source text: as §1

[5] = tested on: FLT3(ITD, F691L); conditions: 1 μM
Source text: as §1

[6] = molecular target: STK36 (Homo sapiens (Human), UniProt Q9NRP7); conditions: read-out: percent control
Source text: as §1

[7] = molecular target: NEK3 (Homo sapiens (Human), UniProt P51956); conditions: read-out: percent control
Source text: as §1

[8] = molecular target: NEK11 (Homo sapiens (Human), UniProt Q8NG66); conditions: read-out: percent control
Source text: as §1

[9] = molecular target: TYRO3 (Homo sapiens (Human), UniProt Q06418); conditions: read-out: percent control
Source text: as §1

[10] = molecular target: ASK2 (Homo sapiens (Human), UniProt O95382); conditions: read-out: percent control
Source text: as §1

[11] = molecular target: FLT3-autoinhibited (Homo sapiens (Human), UniProt P36888); conditions: read-out: percent control
Source text: as §1

[12] = molecular target: EGFR(L861Q) (Homo sapiens (Human), UniProt P00533, L861Q); conditions: read-out: percent control
Source text: as §1

[13] = molecular target: AKT3 (Homo sapiens (Human), UniProt Q9Y243); conditions: read-out: percent control
Source text: as §1

[14] = molecular target: SLK (Homo sapiens (Human), UniProt Q9H2G2); conditions: read-out: percent control
Source text: as §1

[15] = molecular target: RIPK2 (Homo sapiens (Human), UniProt O43353); conditions: read-out: percent control
Source text: as §1

[16] = molecular target: EGFR(L747-S752del, P753S) (Homo sapiens (Human), UniProt P00533, DEL747-752/P753S); conditions: read-out: percent control
Source text: as §1

[17] = molecular target: NEK6 (Homo sapiens (Human), UniProt Q9HC98); conditions: read-out: percent control
Source text: as §1

[18] = molecular target: DLK (Homo sapiens (Human), UniProt Q12852); conditions: read-out: percent control
Source text: as §1

[19] = molecular target: FGFR3(G697C) (Homo sapiens (Human), UniProt P22607, G697C); conditions: read-out: percent control
Source text: as §1

[20] = molecular target: BMX (Homo sapiens (Human), UniProt P51813); conditions: read-out: percent control
Source text: as §1

[21] = molecular target: NEK7 (Homo sapiens (Human), UniProt Q8TDX7); conditions: read-out: percent control
Source text: as §1

[22] = molecular target: RET(V804M) (Homo sapiens (Human), UniProt P07949, V804M); conditions: read-out: percent control
Source text: as §1

[23] = molecular target: FLT3(D835V) (Homo sapiens (Human), UniProt P36888, D835V); conditions: read-out: percent control
Source text: as §1

[24] = molecular target: GAK (Homo sapiens (Human), UniProt O14976); conditions: read-out: percent control
Source text: as §1

[25] = molecular target: SRPK1 (Homo sapiens (Human), UniProt Q96SB4); conditions: read-out: percent control
Source text: as §1

[26] = molecular target: TYK2(JH1domain-catalytic) (Homo sapiens (Human), UniProt P29597); conditions: read-out: percent control
Source text: as §1

[27] = molecular target: MYLK4 (Homo sapiens (Human), UniProt Q86YV6); conditions: read-out: percent control
Source text: as §1

[28] = molecular target: EPHA6 (Homo sapiens (Human), UniProt Q9UF33); conditions: read-out: percent control
Source text: as §1

[29] = molecular target: MYO3B (Homo sapiens (Human), UniProt Q8WXR4); conditions: read-out: percent control
Source text: as §1

[30] = molecular target: SRC (Homo sapiens (Human), UniProt P12931); conditions: read-out: percent control
Source text: as §1

[31] = molecular target: CDC2L2 (Homo sapiens (Human), UniProt Q9UQ88); conditions: read-out: percent control
Source text: as §1

[32] = molecular target: TGFBR1 (Homo sapiens (Human), UniProt P36897); conditions: read-out: percent control
Source text: as §1

[33] = molecular target: DDR2 (Homo sapiens (Human), UniProt Q16832); conditions: read-out: percent control
Source text: as §1

[34] = molecular target: ERK4 (Homo sapiens (Human), UniProt P31152); conditions: read-out: percent control
Source text: as §1

[35] = molecular target: MKNK2 (Homo sapiens (Human), UniProt Q9HBH9); conditions: read-out: percent control
Source text: as §1

[36] = molecular target: LOK (Homo sapiens (Human), UniProt O94804); conditions: read-out: percent control
Source text: as §1

[37] = molecular target: TIE2 (Homo sapiens (Human), UniProt Q02763); conditions: read-out: percent control
Source text: as §1

[38] = molecular target: PIK3CA(E545K) (Homo sapiens (Human), UniProt P42336, E545K); conditions: read-out: percent control
Source text: as §1

[39] = molecular target: JNK3 (Homo sapiens (Human), UniProt P53779); conditions: read-out: percent control
Source text: as §1

[40] = molecular target: STK39 (Homo sapiens (Human), UniProt Q9UEW8); conditions: read-out: percent control
Source text: as §1

Chain of EPHA6 (Q9UF33 23-1036): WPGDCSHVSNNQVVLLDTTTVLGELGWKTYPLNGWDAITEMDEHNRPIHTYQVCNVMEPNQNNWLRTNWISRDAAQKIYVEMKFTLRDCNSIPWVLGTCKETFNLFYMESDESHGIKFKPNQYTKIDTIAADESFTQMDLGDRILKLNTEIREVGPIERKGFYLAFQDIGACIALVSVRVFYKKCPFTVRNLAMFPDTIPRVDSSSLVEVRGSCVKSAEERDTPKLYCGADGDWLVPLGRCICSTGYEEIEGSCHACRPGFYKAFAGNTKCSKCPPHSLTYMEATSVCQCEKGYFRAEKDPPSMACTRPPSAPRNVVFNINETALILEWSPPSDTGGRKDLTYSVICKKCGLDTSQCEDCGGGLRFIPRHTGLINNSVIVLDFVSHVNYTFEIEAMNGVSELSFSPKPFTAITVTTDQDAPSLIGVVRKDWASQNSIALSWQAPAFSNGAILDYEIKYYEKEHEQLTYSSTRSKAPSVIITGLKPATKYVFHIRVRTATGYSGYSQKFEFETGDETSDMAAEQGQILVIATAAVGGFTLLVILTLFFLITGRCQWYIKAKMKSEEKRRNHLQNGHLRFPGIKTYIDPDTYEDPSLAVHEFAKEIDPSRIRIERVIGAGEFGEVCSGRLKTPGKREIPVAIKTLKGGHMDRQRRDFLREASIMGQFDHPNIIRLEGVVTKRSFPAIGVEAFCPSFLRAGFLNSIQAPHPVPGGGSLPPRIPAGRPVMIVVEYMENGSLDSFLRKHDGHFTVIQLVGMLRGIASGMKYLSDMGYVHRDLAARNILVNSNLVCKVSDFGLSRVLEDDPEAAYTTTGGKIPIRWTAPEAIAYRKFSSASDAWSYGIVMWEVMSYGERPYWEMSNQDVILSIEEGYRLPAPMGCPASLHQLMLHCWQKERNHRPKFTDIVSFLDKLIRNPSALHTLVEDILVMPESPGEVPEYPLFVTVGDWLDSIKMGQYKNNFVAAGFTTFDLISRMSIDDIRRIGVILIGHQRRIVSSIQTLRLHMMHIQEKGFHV
Chain of TYK2(JH1domain-catalytic) (P29597 897-1176 limits assumed): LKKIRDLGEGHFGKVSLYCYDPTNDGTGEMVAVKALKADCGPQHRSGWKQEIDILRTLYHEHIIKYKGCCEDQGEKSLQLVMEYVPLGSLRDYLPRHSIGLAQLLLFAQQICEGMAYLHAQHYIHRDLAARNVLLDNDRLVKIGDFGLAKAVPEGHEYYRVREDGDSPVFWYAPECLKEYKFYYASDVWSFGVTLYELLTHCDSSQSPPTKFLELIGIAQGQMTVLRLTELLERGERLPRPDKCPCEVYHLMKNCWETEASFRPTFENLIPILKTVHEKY
Chain of MST1R (Q04912 25-1400): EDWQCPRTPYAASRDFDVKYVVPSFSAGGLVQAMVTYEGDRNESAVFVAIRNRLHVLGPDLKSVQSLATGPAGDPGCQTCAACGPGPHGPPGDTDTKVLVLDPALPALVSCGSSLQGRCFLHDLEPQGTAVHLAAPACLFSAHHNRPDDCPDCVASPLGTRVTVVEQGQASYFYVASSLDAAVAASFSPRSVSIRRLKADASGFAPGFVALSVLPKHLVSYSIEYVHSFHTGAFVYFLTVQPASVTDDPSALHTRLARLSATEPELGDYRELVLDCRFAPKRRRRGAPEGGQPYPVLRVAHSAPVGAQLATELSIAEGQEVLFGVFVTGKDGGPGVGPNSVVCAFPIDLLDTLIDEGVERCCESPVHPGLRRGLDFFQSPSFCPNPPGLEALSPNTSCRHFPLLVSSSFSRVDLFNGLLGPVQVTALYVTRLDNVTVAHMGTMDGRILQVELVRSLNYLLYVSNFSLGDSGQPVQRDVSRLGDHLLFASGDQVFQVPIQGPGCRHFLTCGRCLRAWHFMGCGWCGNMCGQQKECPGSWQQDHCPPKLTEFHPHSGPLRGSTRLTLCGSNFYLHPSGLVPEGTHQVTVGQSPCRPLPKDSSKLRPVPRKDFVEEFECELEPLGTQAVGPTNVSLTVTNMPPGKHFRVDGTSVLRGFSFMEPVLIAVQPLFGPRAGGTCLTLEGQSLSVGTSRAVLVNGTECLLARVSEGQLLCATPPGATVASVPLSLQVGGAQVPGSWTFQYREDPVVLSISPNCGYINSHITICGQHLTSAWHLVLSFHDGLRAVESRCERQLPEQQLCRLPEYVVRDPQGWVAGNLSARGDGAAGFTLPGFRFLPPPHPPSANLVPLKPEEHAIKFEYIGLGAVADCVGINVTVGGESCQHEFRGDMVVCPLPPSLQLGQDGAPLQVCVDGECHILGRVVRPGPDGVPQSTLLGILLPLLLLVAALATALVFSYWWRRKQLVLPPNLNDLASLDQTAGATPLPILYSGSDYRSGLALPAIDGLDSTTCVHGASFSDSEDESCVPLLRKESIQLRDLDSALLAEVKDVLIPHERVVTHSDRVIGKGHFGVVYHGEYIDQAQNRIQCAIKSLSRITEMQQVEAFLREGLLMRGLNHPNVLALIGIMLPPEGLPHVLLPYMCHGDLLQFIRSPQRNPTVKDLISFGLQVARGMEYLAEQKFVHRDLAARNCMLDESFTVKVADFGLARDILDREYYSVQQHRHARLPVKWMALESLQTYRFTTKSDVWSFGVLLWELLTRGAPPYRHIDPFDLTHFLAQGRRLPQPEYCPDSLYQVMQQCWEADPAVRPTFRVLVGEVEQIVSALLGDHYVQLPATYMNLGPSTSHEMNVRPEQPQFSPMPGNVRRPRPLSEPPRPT
Chain of TGFBR1 (P36897 34-503): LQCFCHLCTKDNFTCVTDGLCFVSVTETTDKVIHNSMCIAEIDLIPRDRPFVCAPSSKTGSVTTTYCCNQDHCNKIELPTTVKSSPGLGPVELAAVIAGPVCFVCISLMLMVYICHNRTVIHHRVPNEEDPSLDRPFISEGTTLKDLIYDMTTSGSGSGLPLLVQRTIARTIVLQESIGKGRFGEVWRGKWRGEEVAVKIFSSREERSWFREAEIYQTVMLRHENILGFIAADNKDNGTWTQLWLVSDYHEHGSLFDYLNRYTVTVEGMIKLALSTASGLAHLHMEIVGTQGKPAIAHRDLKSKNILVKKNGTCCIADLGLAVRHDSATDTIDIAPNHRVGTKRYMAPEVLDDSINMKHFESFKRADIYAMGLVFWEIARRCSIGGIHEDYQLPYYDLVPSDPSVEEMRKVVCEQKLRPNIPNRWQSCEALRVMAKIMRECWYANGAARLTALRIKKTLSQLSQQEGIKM
Chain of DDR2 (Q16832 22-855): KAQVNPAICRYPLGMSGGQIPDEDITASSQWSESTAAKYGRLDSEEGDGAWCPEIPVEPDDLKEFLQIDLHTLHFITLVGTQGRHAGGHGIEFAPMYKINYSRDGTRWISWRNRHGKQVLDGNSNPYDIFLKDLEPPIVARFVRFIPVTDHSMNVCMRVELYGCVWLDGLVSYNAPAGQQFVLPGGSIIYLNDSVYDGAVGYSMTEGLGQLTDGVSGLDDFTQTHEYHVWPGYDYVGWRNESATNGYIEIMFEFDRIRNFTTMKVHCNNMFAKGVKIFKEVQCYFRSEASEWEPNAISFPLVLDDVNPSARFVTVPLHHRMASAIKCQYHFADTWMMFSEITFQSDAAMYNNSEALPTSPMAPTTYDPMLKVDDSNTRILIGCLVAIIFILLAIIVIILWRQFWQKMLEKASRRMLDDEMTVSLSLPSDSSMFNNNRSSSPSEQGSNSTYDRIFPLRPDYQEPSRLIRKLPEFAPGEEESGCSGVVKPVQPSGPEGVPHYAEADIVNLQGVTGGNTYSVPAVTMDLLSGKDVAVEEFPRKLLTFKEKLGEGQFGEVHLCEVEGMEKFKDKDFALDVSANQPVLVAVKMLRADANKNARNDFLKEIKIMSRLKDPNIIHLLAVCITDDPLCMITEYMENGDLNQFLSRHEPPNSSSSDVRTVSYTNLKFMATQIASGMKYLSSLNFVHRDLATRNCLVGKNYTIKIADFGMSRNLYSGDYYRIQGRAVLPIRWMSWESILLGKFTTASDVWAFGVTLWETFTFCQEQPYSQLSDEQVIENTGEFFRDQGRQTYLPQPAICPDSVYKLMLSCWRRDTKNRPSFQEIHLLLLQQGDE
Chain of CDC2L2 (Q9UQ88 whole entry): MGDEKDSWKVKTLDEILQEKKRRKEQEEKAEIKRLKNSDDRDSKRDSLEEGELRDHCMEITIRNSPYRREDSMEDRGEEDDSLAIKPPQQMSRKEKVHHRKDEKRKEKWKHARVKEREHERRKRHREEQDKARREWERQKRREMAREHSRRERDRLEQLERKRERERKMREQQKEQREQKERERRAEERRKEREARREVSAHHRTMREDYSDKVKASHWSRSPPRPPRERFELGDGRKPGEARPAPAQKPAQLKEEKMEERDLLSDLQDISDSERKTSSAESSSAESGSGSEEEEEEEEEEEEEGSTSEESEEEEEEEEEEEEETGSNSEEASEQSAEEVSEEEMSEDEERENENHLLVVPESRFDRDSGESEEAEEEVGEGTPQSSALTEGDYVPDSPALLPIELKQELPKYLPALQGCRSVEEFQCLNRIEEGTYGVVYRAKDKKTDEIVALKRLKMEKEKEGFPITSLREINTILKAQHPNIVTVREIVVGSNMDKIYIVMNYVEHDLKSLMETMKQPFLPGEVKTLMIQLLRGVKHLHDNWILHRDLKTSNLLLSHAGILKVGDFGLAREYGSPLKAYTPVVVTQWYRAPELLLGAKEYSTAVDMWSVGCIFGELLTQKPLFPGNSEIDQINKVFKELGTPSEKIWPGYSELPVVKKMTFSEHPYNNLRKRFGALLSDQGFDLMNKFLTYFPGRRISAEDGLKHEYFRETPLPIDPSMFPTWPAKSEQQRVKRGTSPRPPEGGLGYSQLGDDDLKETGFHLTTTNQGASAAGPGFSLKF
Chain of NEK6 (Q9HC98 whole entry): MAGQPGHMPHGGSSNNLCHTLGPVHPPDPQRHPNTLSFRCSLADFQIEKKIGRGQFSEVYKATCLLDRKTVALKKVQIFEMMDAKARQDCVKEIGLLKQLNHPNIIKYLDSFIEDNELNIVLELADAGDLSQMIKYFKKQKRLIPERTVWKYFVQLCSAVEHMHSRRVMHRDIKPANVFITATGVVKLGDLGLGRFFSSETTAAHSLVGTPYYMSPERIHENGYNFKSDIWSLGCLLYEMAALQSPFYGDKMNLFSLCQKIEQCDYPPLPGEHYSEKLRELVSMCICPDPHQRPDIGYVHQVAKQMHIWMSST

CCN1CCN(Cc2ccc(Nc3nc4ccc(Oc5ccnc(NC(C)=O)c5)cc4n3C)cc2C(F)(F)F)CC1 [Compound I-2]
remaining binding at 1 µM [1]: 100%
remaining binding at 1 µM [2]: 80%
remaining binding at 1 µM [3]: 67%
remaining binding at 1 µM [4]: 80%
percent control [5]: 34%
remaining binding at 1 µM [6]: 79%
remaining binding at 1 µM [7]: 77%
remaining binding at 1 µM [8]: 100%
remaining binding at 1 µM [9]: 100%
remaining binding at 1 µM [10]: 97%
remaining binding at 1 µM [11]: 100%
remaining binding at 1 µM [12]: 98%
remaining binding at 1 µM [13]: 99%
remaining binding at 1 µM [14]: 81%
remaining binding at 1 µM [15]: 94%
remaining binding at 1 µM [16]: 80%
remaining binding at 1 µM [17]: 93%
remaining binding at 1 µM [18]: 100%
remaining binding at 1 µM [19]: 98%
remaining binding at 1 µM [20]: 100%
remaining binding at 1 µM [21]: 88%
remaining binding at 1 µM [22]: 9.9%
remaining binding at 1 µM [23]: 51%
remaining binding at 1 µM [24]: 100%
remaining binding at 1 µM [25]: 50%
remaining binding at 1 µM [26]: 23%
remaining binding at 1 µM [27]: 100%
remaining binding at 1 µM [28]: 100%
remaining binding at 1 µM [29]: 87%
remaining binding at 1 µM [30]: 61%
remaining binding at 1 µM [31]: 0.1%
remaining binding at 1 µM [32]: 100%
remaining binding at 1 µM [33]: 0%
remaining binding at 1 µM [34]: 100%
remaining binding at 1 µM [35]: 82%
remaining binding at 1 µM [36]: 21%
remaining binding at 1 µM [37]: 81%
remaining binding at 1 µM [38]: 80%
remaining binding at 1 µM [39]: 100%
remaining binding at 1 µM [40]: 62%

CCN1CCN(Cc2ccc(Nc3nc4ccc(Oc5ccnc(NC(C)=O)c5)c(C)c4n3C)cc2C(F)(F)F)CC1 [Compound I-6, N-(4-(2-(4-((4-ethylpiperazin-1-yl)methyl)-3-(trifluoromethyl)phenylamino)-1,7-dimethyl-1H-benzo[d]imidazol-6-yloxy)pyridin-2-yl)acetamide]
remaining binding at 1 µM [1]: 68%
remaining binding at 1 µM [2]: 49%
remaining binding at 1 µM [3]: 38%
remaining binding at 1 µM [4]: 83%
percent control [5]: 46%
remaining binding at 1 µM [6]: 92%
remaining binding at 1 µM [7]: 92%
remaining binding at 1 µM [8]: 61%
remaining binding at 1 µM [9]: 100%
remaining binding at 1 µM [10]: 89%
remaining binding at 1 µM [11]: 66%
remaining binding at 1 µM [12]: 100%
remaining binding at 1 µM [13]: 100%
remaining binding at 1 µM [14]: 55%
remaining binding at 1 µM [15]: 82%
remaining binding at 1 µM [16]: 94%
remaining binding at 1 µM [17]: 99%
remaining binding at 1 µM [18]: 100%
remaining binding at 1 µM [19]: 66%
remaining binding at 1 µM [20]: 91%
remaining binding at 1 µM [21]: 95%
remaining binding at 1 µM [22]: 4.5%
remaining binding at 1 µM [23]: 40%
remaining binding at 1 µM [24]: 98%
remaining binding at 1 µM [25]: 83%
remaining binding at 1 µM [26]: 36%
remaining binding at 1 µM [27]: 96%
remaining binding at 1 µM [28]: 96%
remaining binding at 1 µM [29]: 89%
remaining binding at 1 µM [30]: 32%
remaining binding at 1 µM [31]: 0.2%
remaining binding at 1 µM [32]: 95%
remaining binding at 1 µM [33]: 0%
remaining binding at 1 µM [34]: 90%
remaining binding at 1 µM [35]: 66%
remaining binding at 1 µM [36]: 0.45%
remaining binding at 1 µM [37]: 36%
remaining binding at 1 µM [38]: 97%
remaining binding at 1 µM [39]: 77%
remaining binding at 1 µM [40]: 93%
